Reference: patent US4198507A (Hoffmann-La Roche Inc., priority 1978, dated 1980)

Tests used:
[1] = prior art; cited from earlier work
Mice = experiment: Acute toxicity, mice p.o. (72 hours); assay type: in vivo
Description: 1. Acute Toxicity LC50 Mice p.o. (72 hours)

[2] = prior art; cited from earlier work; remark: listed apart in the source
gastrointestinal tract = conditions: compared with the parent xanthines; prior art; cited from earlier work

Molecule	water solubility (in words) [1]	Acute Toxicity LC50 (Mice) [mg]	also measured
CC(=O)[O-].Cn1c(=O)c2[nH]cnc2n(C)c1=O.[Na+] [theophylline sodium acetate]	soluble in water		
Cn1c(=O)c2[nH]cnc2n(C)c1=O [Theophylline anhydrous, 1, 3, dimethyl xanthine]		460 ± 35	
theophylline calcium salicylate			reaction in aqueous solutions or suspensions [2]: alkaline reactions; tolerance in the gastrointestinal tract (gastrointestinal tract): better tolerated
O=C(O)c1ccccc1O [Magnesium Sailicylate, magnesium salicylate]		1200 ± 53	
Cn1cnc2c1c(=O)[nH]c(=O)n2C [theobromine sodium salicylate]	soluble		
